Assay results reported in US8618355B2, “Aromatic prenyltransferase from hop” (priority 2008, dated 2013).
Where two headings read alike, the source gives them in different places.

What was measured:
[1] = biological target: T1, HIPT1 (Humulus lupulus, UniProt E5RP65, INS53SN/R152W); assay type: biochemical; design: were designed to amplify the open reading frame (ORF) of the prenlyltransferase gene; N-terminal 6xHis and TEV site from the pFastBacHT C vector (own knowledge of the vector); made in house; host or cells: Spodoptera frugiperda (Sf9) insect cells, baculovirus (Bac-to-Bac); microsomal preparation, not purified; conditions: mean ± SD (n = 3), read-out: Km Substrate
T1 sequence (E5RP65 other isoform, or with tags, fused parts or gaps INS53SN/R152W): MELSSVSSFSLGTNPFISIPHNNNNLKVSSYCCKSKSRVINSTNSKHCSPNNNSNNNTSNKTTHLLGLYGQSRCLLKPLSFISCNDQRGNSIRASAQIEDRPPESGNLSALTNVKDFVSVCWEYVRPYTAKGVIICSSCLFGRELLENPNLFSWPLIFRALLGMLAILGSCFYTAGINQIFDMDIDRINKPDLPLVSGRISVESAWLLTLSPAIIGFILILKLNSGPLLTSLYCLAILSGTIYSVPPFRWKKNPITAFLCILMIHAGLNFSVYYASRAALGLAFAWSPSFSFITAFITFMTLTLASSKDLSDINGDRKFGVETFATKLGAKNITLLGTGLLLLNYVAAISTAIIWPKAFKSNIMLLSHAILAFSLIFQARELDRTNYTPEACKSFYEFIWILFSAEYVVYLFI
Experimental: (§1) HIPT1 enzyme was assayed with phlorisobutyryphenone (PIBP), phlorisovalerophenone (PIVP) and chalconaringenin. Microsomal preparations from Example 2 were used in a 100 μl enzyme assay containing 100 mM Tris-HCl pH 7.0, 10 mM MgCl2, 0.5 mM aromatic substrate (PIBP, PIVP or chalconaringenin), 0.5 mM dimethylallyldiphosphate (DMAPP) and 20 μl of microsomes from insect cells expressing recombinant HIPT1. The assays were incubated at 30° C. for 120 min, the reactions stopped by addition of 5 μl 6N HCl, the reaction products extracted with 200 μl ethyl acetate and dried. The dried products were resuspended in 100 μl of methanol and analyzed by reversed-phase HPLC (solvent A: 0.1% TFA in water, solvent B: acetonitrile; 0-10 min, 40% B to 50% B; 10-20 min, 50% B to 100% B; flow rate 1 ml/min).

[2] = biological target: T1, HIPT1; experiment: HIPT1 enzyme assay with aromatic substrate and DMAPP, products analysed by HPLC and LC-MS; assay type: biochemical; design: were designed to amplify the open reading frame (ORF) of the prenlyltransferase gene; N-terminal 6xHis and TEV site from the pFastBacHT C vector (own knowledge of the vector); made in house; host or cells: Spodoptera frugiperda (Sf9) insect cells, baculovirus (Bac-to-Bac); microsomal preparation, not purified; conditions: 0.5 mM aromatic substrate, 0.5 mM DMAPP, 30° C., 120 min, pH 7.0
Experimental: as §1
Abbreviations: PIBP is phlorisobutyrophenone, PIVP is phlorisovalerophenone, DMAPP is dimethylallyl diphosphate.

[3] = biological target: T1, HIPT1; conditions: presence of EDTA
[4] = biological target: T1, HIPT1; experiment: Substrate specificity of HIPT1 prenyltransferase activity (14C-DMAPP, radioHPLC); assay type: biochemical; design: were designed to amplify the open reading frame (ORF) of the prenlyltransferase gene; N-terminal 6xHis and TEV site from the pFastBacHT C vector (own knowledge of the vector); made in house; host or cells: Spodoptera frugiperda (Sf9) insect cells, baculovirus (Bac-to-Bac); microsomal preparation, not purified; conditions: aromatic acceptor substrates
Experimental: Referring to FIG. 9A, prenyltransferase activity of HIPT1 on various substrates was measured using ^14C-DMAPP and thirteen aromatic acceptor substrates. Prenylated products were detected and quantified using radioHPLC. Error bars are SD (n=3). Referring to FIG. 9B, prenyltransferase activity of HIPT1 was measured with different prenyl diphosphate donors and the three major aromatic acceptor substrates, PIBP, PIVP and chalconaringenin. Prenylated products were quantified using HPLC with UV detection. Abbreviations: PIBP, phlorisobutyrophenone, PIVP, phlorisovalerophenone; DMAPP, dimethylallyl diphosphate; IPP, isopentenyl diphosphate; GPP, geranyl diphosphate; GGPP, geranylgeranyl diphosphate. Error bars are SD (n=3).

SMILES | Km ([1]; acceptor substrate) [µM] | Prenylation by HIPT1 (product formed) [2] | Acceptance as substrate of HIPT1 [4] | other results
O=C(/C=C/c1ccc(O)cc1)c1c(O)cc(O)cc1O [Chalconaringenin, chalconaringenin] | 196 ± 24.8 | forming desmethylxanthohumol |  | 
CC(C)=CCOP(=O)(O)OP(=O)(O)O [DMAPP, dimethylallyldiphosphate] |  |  |  | Km ([1]; prenyl donor, determined with PIVP as acceptor substrate): 16.8 ± 2.35 µM
O=C(O)CN(CCN(CC(=O)O)CC(=O)O)CC(=O)O [EDTA] |  |  |  | Effect on prenyltransferase activity of HIPT1 [3]: completely inhibited
CC(C)C(=O)c1c(O)cc(O)cc1O [PIBP, phlorisobutyryphenone] | 10.2 ± 0.55 | forming prenyl PIBP |  | 
CC(C)CC(=O)c1c(O)cc(O)cc1O [PIVP, phlorisovalerophenone] | 4.95 ± 0.25 | forming prenyl PIVP |  | 
O=C(/C=C/c1ccc(O)cc1)c1ccc(O)cc1O [isoliquiritigenin] |  |  | can accept | 
Cc1cc(O)cc(O)c1 [orcinol] |  |  | can accept | 
CC(C)=CCc1c(O)cc(O)c(C(=O)C(C)C)c1O [prenyl-PIBP] |  |  | does prenylate prenyl-PIBP to form diprenyl-PIBP | 
Oc1ccc(C=Cc2cc(O)cc(O)c2)cc1 [resveratrol] |  |  | can accept | 
